Experimental data taken from patent publication US7446104B2, “Phenylalkynes” (Ortho-McNeil Pharmaceutical, Inc., priority 2001, dated 2008).

molecular target: T1, human histamine H3 receptor (Homo sapiens, UniProt Q9Y5N1); experiment: [3H]-N-methylhistamine binding; settings: not given
T1 construct: One microgram of supercoiled H3 receptor cDNA was added to the cells and mixed; expressed in transfected cells; membranes prepared from cell pellets
Protocol: Transfection of Cells with Human Histamine Receptor
A 10 cm tissue culture dish with a confluent monolayer of SK-N-MC cells was split two days prior to transfection. Using sterile technique the media were removed and the cells were detached from the dish by the addition of trypsin. One fifth of the cells were then placed onto a new 10 cm dish. Cells were grown in a 37° C. incubator with 5% CO2 in Minimal Essential Media Eagle with 10% Fetal Bovine Serum. After two days cells were approximately 80% confluent. These were removed from the dish with trypsin and pelleted in a clinical centrifuge. The pellet was then re-suspended in 400 μL complete media and transferred to an electroporation cuvette with a 0.4 cm gap between the electrodes. One microgram of supercoiled H3 receptor cDNA was added to the cells and mixed. The voltage for the electroporation was set at 0.25 kV, the capacitance was set at 960 μF. After electroporation the cells were diluted into 10 mL complete media and plated onto four 10 cm dishes. Because of the variability in the efficiency of electroporation, four different concentrations of cells were plated. The ratios used were; 1:20, 1:10, 1:5, with the remainder of the cells being added to the fourth dish. The cells were allowed to recover for 24 hours before adding the selection media (complete media with 600 μg/mL G418). After 10 days dishes were analyzed for surviving colonies of cells. Dishes with well isolated colonies were used. Cells from individual colonies were isolated and tested. SK-N-MC cells were used because they give efficient coupling for inhibition of adenylate cyclase. The clones that gave the most robust inhibition of adenylate cyclase in response to histamine were used for further study.
[^3H]-N-methylhistamine Binding
Cell pellets from histamine H3 receptor-expressing SK-N-MC cells were homogenized in 20 mM Tris HCl/0.5 mM EDTA. Supernatants from a 800 g spin were collected, recentrifuged at 30,000 g for 30 min. Pellets were re-homogenized in 50 mM Tris/5 mM EDTA (pH 7.4). Membranes were incubated with 0.8 nM [^3H]-N-methylhistamine plus/minus test compounds for 45 min at 25° C. and harvested by rapid filtration over GF/C glass fiber filters (pretreated with 0.3% polyethylenimine) followed by four washes with ice cold buffer. Filters were dried, added to 4 mL scintillation cocktail and then counted on a liquid scintillation counter. Non-specific binding was defined with 10 μM histamine.

T1 sequence (Q9Y5N1 whole entry): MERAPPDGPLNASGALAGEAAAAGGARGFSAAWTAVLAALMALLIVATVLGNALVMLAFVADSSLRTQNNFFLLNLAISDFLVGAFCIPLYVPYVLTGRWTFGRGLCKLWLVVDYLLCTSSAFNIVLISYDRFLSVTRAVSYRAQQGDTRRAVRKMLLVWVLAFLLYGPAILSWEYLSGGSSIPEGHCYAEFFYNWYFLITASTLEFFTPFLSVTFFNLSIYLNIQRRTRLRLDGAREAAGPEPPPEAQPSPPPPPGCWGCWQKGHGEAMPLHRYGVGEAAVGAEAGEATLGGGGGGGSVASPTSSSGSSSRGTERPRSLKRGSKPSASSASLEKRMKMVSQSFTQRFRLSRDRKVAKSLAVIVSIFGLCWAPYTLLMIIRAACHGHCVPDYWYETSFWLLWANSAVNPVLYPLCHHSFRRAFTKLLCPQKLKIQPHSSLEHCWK

| SMILES | Ki |
| --- | --- |
| CN1CCN(Cc2ccc(C#CCCN3CCCCC3)cc2)CC1 [Example 32, 1-Methyl-4-[4-(4-piperidin-1-yl-but-1-ynyl)-benzyl]-piperazine] | 0.7 nM |
| C(#Cc1ccc(CN2CCN(Cc3ccccc3)CC2)cc1)CCN1CCCCC1 [Example 36, 1-Benzyl-4-[4-(4-piperidin-1-yl-but-1-ynyl)-benzyl]-piperazine] | 9 nM |
| C(#Cc1ccc(CN2CCNCC2)cc1)CCN1CCCCC1 [Example 38, 1-[4-(4-Piperidin-1-yl-but-1-ynyl)-benzyl]-piperazine] | 1.3 nM |
| C(#Cc1cccc(CN2CCCCC2c2cccnc2)c1)CCN1CCCCC1 (stereo not shown) [Example 42, 1-[3-(4-Piperidin-1-yl-but-1-ynyl)-benzyl]-1,2,3,4,5,6-hexahydro-[2,3′]bipyridinyl] | 11 nM |
| FC(F)(F)c1cccc(N2CCN(Cc3cccc(C#CCCN4CCCCC4)c3)CC2)c1 [Example 43, 1-[3-(4-Piperidin-1-yl-but-1-ynyl)-benzyl]-4-(3-trifluoromethyl-phenyl)-piperazine] | 91 nM |
| CN(CCc1c[nH]c2ccccc12)Cc1cccc(C#CCCN2CCCCC2)c1 [Example 52, [2-(1H-Indol-3-yl)-ethyl]-methyl-[3-(4-piperidin-1-yl-but-1-ynyl)-benzyl]-amine] | 2 nM |

same assay, conditions: membranes of histamine H3 receptor-expressing SK-N-MC cells; 0.8 nM [3H]-N-methylhistamine; 45 min at 25° C.; read-out: Ki

| SMILES | Ki |
| --- | --- |
| C(#Cc1cccc(CN2CCCCC2)c1)CCN1CCCCC1 [Example 15, 1-[3-(4-Piperidin-1-yl-but-1-ynyl)-benzyl]-piperidine] | 0.8 nM |
| CCN(CC)CCC#Cc1ccc(CN2CCCCC2)cc1 [Example 19, Diethyl-[4-(4-piperidin-1-ylmethyl-phenyl)-but-3-ynyl]-amine] | 2.4 nM |
| CCN(CC)Cc1ccc(C#CCCN2CCCCC2)cc1 [Example 25, Diethyl-[4-(4-piperidin-1-yl-but-1-ynyl)-benzyl]-amine] | 1.1 nM |
| C(#Cc1ccc(CN2CCCC3CCCCC32)cc1)CCN1CCCCC1 (stereo not shown) [Example 29, 1-[4-(4-Piperidin-1-yl-but-1-ynyl)-benzyl]-decahydro-quinoline] | 0.8 nM |
| C(#Cc1ccc(CNC2CCCCC2)cc1)CCN1CCCCC1 [Example 33, Cyclohexyl-[4-(4-piperidin-1-yl-but-1-ynyl)-benzyl]-amine] | 0.5 nM |
| C(#Cc1ccc(CNC2CCc3ccccc32)cc1)CCN1CCCCC1 (stereo not shown) [Example 34, Indan-1-yl-[4-(4-piperidin-1-yl-but-1-ynyl)-benzyl]-amine] | 1.3 nM |
| CCN(CC)C(=O)C1CCCN(Cc2cccc(C#CCCN3CCCCC3)c2)C1 (stereo not shown) [Example 41, 1-[3-(4-Piperidin-1-yl-but-1-ynyl)-benzyl]-piperidine-3-carboxylic acid diethylamide] | 3 nM |
| C(#Cc1cccc(CN2CCN(c3ncccn3)CC2)c1)CCN1CCCCC1 [Example 44, 2-{4-[3-(4-Piperidin-1-yl-but-1-ynyl)-benzyl]-piperazin-1-yl}-pyrimidine] | 9 nM |
| NC(=O)C1CCN(Cc2cccc(C#CCCN3CCCCC3)c2)CC1 [Example 45, 1-[3-(4-Piperidin-1-yl-but-1-ynyl)-benzyl]-piperidine-4-carboxylic acid amide] | 2 nM |
| CN(CCc1ccccn1)Cc1cccc(C#CCCN2CCCCC2)c1 [Example 46, Methyl-[3-(4-piperidin-1-yl-but-1-ynyl)-benzyl]-(2-pyridin-2-yl-ethyl)-amine] | 4 nM |
| COc1ccc(CCN(C)Cc2cccc(C#CCCN3CCCCC3)c2)cc1OC [Example 47, [2-(3,4-Dimethoxy-phenyl)-ethyl]-methyl-[3-(4-piperidin-1-yl-but-1-ynyl)-benzyl]-amine] | 3 nM |
| C(#Cc1cccc(CN2CCSCC2)c1)CCN1CCCCC1 [Example 48, 4-[3-(4-Piperidin-1-yl-but-1-ynyl)-benzyl]-thiomorpholine] | 1 nM |
| C=CCN(Cc1cccc(C#CCCN2CCCCC2)c1)C1CCCC1 [Example 49, Allyl-cyclopentyl-[3-(4-piperidin-1-yl-but-1-ynyl)-benzyl]-amine] | 2 nM |
| C(#Cc1cccc(CN2CCOCCOCCOCC2)c1)CCN1CCCCC1 [Example 50, 10-[3-(4-Piperidin-1-yl-but-1-ynyl)-benzyl]-1,4,7-trioxa-10-aza-cyclododecane] | 2 nM |
| C(#Cc1cccc(CN2CCSC2)c1)CCN1CCCCC1 [Example 51, 1-[4-(3-Thiazolidin-3-ylmethyl-phenyl)-but-3-ynyl]-piperidine] | 1 nM |
| C(#Cc1cccc(CNc2ccccc2)c1)CCN1CCCCC1 [Example 54, Phenyl-[3-(4-piperidin-1-yl-but-1-ynyl)-benzyl]-amine] | 110 nM |
| C(#Cc1cccc(CN2CCCCCCCCCCCC2)c1)CCN1CCCCC1 [Example 56, 1-[3-(4-Piperidin-1-yl-but-1-ynyl)-benzyl]-azacyclotridecane] | 13 nM |

Now from value to compound:

| Ki | SMILES |
| --- | --- |
| 1.6 nM | C(#Cc1ccc(CN2CCCCC2)cc1)CCN1CCCCC1 [Example 14, 1-[4-(4-Piperidin-1-ylmethyl-phenyl)-but-3-ynyl]-piperidine] |
| 2 nM | C(#Cc1ccc(CN2CCCCC2)cc1)CCN1CCCC1 [Example 18, 1′-[4-(4-Pyrrolidin-1-yl-but-1-ynyl)-benzyl]-piperidine] |
| 6 nM | C(#Cc1ccc(CN2CCCCC2)cc1)CCN1CCSCC1 [Example 20, 4-[4-(4-Piperidin-1-ylmethyl-phenyl)-but-3-ynyl]-thiomorpholine] |
| 15 nM | C(#Cc1ccc(CN2CCCCC2)cc1)CCN1CCOCC1 [Example 21, 4-[4-(4-Piperidin-1-ylmethyl-phenyl)-but-3-ynyl]-morpholine] |
| 21 nM | CN1CCN(CCC#Cc2ccc(CN3CCCCC3)cc2)CC1 [Example 22, 1-Methyl-4-[4-(4-piperidin-1-ylmethyl-phenyl)-but-3-ynyl]-piperazine] |
| 1.4 nM | C(#Cc1ccc(CN2CCCC2)cc1)CCN1CCCCC1 [Example 23, 1-[4-(4-Pyrrolidin-1-ylmethyl-phenyl)-but-3-ynyl]-piperidine] |
| 5.5 nM | C(#Cc1ccc(CN2CCOCC2)cc1)CCN1CCCCC1 [Example 24, 4-[4-(4-Piperidin-1-yl-but-1-ynyl)-benzyl]-morpholine] |
| 2.9 nM | C(#Cc1ccc(CN2CCC(Cc3ccccc3)CC2)cc1)CCN1CCCCC1 [Example 26, 1-{4-[4-(4-Benzyl-piperidin-1-ylmethyl)-phenyl]-but-3-ynyl}-piperidine] |
| 1.7 nM | OC1CCN(Cc2ccc(C#CCCN3CCCCC3)cc2)CC1 [Example 27, 1-[4-(4-Piperidin-1-yl-but-1-ynyl)-benzyl]-piperidin-4-ol] |
| 0.4 nM | OCCC1CCCCN1Cc1ccc(C#CCCN2CCCCC2)cc1 (stereo not shown) [Example 28, 2-{1-[4-(4-Piperidin-1-yl-but-1-ynyl)-benzyl]-piperidin-2-yl}-ethanol] |
| 1.6 nM | NC(=O)C1CCN(Cc2ccc(C#CCCN3CCCCC3)cc2)CC1 [Example 30, 1-[4-(4-Piperidin-1-yl-but-1-ynyl)-benzyl]-piperidine-4-carboxylic acid amide] |
| 1.8 nM | C(#Cc1ccc(CN2CCC3(CC2)OCCO3)cc1)CCN1CCCCC1 [Example 31, 8-[4-(4-Piperidin-1-yl-but-1-ynyl)-benzyl]-1,4-dioxa-8-aza-spiro[4.5]decane] |
| 7 nM | C(#Cc1ccc(CN2CCN(c3ccccc3)CC2)cc1)CCN1CCCCC1 [Example 35, 1-Phenyl-4-[4-(4-piperidin-1-yl-but-1-ynyl)-benzyl]-piperazine] |
| 15 nM | CC(C)(C)OC(=O)N1CCN(Cc2ccc(C#CCCN3CCCCC3)cc2)CC1 [Example 37, 4-[4-(4-Piperidin-1-yl-but-1-ynyl)-benzyl]-piperazine-1-carboxylic acid tert-butyl ester] |
| 1.3 nM | CC(C)N1CCN(Cc2ccc(C#CCCN3CCCCC3)cc2)CC1 [Example 39, 1-Isopropyl-4-[4-(4-piperidin-1-yl-but-1-ynyl)-benzyl]-piperazine] |
| 1 nM | C(#Cc1cccc(CN2CCCC2)c1)CCN1CCCCC1 [Example 55, 1-[4-(3-Pyrrolidin-1-ylmethyl-phenyl)-but-3-ynyl]-piperidine] |

same assay, conditions: read-out: Ki

| SMILES | Ki |
| --- | --- |
| O=C1NCN(c2ccccc2)C12CCN(Cc1cccc(C#CCCN3CCCCC3)c1)CC2 [Example 40, 1-Phenyl-8-[3-(4-piperidin-1-yl-but-1-ynyl)-benzyl]-1,3,8-triaza-spiro[4.5]decan-4-one] | 2 nM |
